Converted amounts (≈) assume the structure as drawn.
tested on: M. tuberculosis; assay: microbe, parasite or virus in culture; format: cell-based; conditions: Mycobacterium tuberculosis, 120 h; read-out: QUM (MIC80)

Which MIC80 does the source give for `CCc1nc2cc(OC)ccn2c1C(=O)NCc1ccc(N2CCC(c3ccccc3)CC2)cc1` [Compound 18] here?
The MIC80 was under 1 µM.

How did the MIC80 turn out when `CCc1nc2ccc(Cl)cn2c1C(=O)NCc1ccc(C(=O)CN2CCOCC2)cc1` [Compound 303] was run?
Its MIC80 is under 1 µM.

For `CCc1nc2c(C(F)(F)F)cccn2c1C(=O)NCc1ccc(N2CCC(c3ccc(C)cc3)CC2)cc1` [Compound 25], which MIC80 is on record?
Its MIC80 is 1 to 20 µM (≈ 0.521 to 10.4 µg/mL).

How did the MIC80 turn out when `CCc1nc2ccccn2c1C(=O)NCc1ccc(CC2CCOCC2)cc1` [Compound 252] was run?
The MIC80 was under 1 µM.

Which MIC80 does the source give for `CCc1nc2c(C)cccn2c1C(=O)NCc1ccc(N2CCC(c3ccc(C(F)(F)F)cc3)CC2)cc1` [Compound 145] here?
Its MIC80 is under 1 µM.

How did the MIC80 turn out when `CCc1nc2ccc(OC)cn2c1C(=O)NCc1ccc(N2CCC(c3ccc(OC)cc3)CC2)cc1` [Compound 123] was run?
Its MIC80 is under 1 µM.

How did the MIC80 turn out when `CCc1nc2cc(Cl)ccn2c1C(=O)NCc1ccc2oc(C)nc2c1` [Compound 339] was run?
The MIC80 was 1 to 20 µM (≈ 0.369 to 7.38 µg/mL).

For `CCc1nc2c(C)cccn2c1C(=O)NCc1ccc(N2CCC(c3ccc(F)cc3)CC2)cc1` [Compound 225], which MIC80 is on record?
The MIC80 was under 1 µM.

For `CCc1nc2c(Cl)cccn2c1C(=O)NCc1ccc(N2CCC(c3ccccc3)CC2)cc1` [Compound 190], which MIC80 is on record?
The MIC80 was under 1 µM.

For `CCc1nc2cc(Cl)ccn2c1C(=O)NCc1ccc(C(=O)N(C)Cc2ccc(F)cc2)cc1` [Compound 318], which MIC80 is on record?
Its MIC80 is 1 to 20 µM (≈ 0.479 to 9.58 µg/mL).

How did the MIC80 turn out when `CCc1nc2cc(Cl)ccn2c1C(=O)NCc1ccc2c(c1)ncn2C` [Compound 272] was run?
The MIC80 was 1 to 20 µM (≈ 0.368 to 7.36 µg/mL).

Which MIC80 does the source give for `CCc1nc2cc(C(F)(F)F)ccn2c1C(=O)NCc1ccc(N2CCN(c3ccc(C)cc3)CC2)cc1` [Compound 106] here?
Its MIC80 is under 1 µM.

`CCc1nc2ccc(C(F)(F)F)cn2c1C(=O)NCc1ccc(N2CCN(c3ccc(C(F)(F)F)cc3)CC2)cc1` [Compound 130] was tested. Which MIC80 did it give?
Its MIC80 is under 1 µM.

For `CCc1nc2cc(Cl)ccn2c1C(=O)NCc1cccc(C(=O)N(C)Cc2ccc(F)cc2)c1` [Compound 330], which MIC80 is on record?
Its MIC80 is 1 to 20 µM (≈ 0.479 to 9.58 µg/mL).

For `CCc1nc2ccc(C)cn2c1C(=O)NCc1ccc(N2CCN(c3ccc(OC)cc3)CC2)cc1` [Compound 56], which MIC80 is on record?
Its MIC80 is under 1 µM.

For `Cc1nc2cc(Cl)ccn2c1C(=O)NCc1ccc(N2CCC(c3ccc(C(F)(F)F)cc3)CC2)cc1` [Compound 298], which MIC80 is on record?
Its MIC80 is under 1 µM.

`CCc1nc2ccc(Cl)cn2c1C(=O)NCc1ccc(N2CCC(c3ccc(C(=O)OC)cc3)CC2)cc1` [Compound 344] was tested. Which MIC80 did it give?
The MIC80 was under 1 µM.

`CCc1nc2ccc(F)cn2c1C(=O)NCc1ccc(N2CCN(c3ccc(OC)cc3)CC2)cc1` [Compound 149] was tested. Which MIC80 did it give?
Its MIC80 is under 1 µM.

How did the MIC80 turn out when `CCc1nc2cc(F)ccn2c1C(=O)NCc1ccc(N2CCN(c3ccc(OC)cc3)CC2)cc1` [Compound 74] was run?
Its MIC80 is under 1 µM.

How did the MIC80 turn out when `CCc1nc2ccc(C(F)(F)F)cn2c1C(=O)NCc1ccc(N2CCN(c3ccc(Cl)cc3)CC2)cc1` [Compound 121] was run?
The MIC80 was under 1 µM.

For `CCc1nc2c(Br)cccn2c1C(=O)NCc1ccc(N2CCC(c3ccc(C(F)(F)F)cc3)CC2)cc1` [Compound 143], which MIC80 is on record?
Its MIC80 is 1 to 20 µM (≈ 0.585 to 11.7 µg/mL).

How did the MIC80 turn out when `CCc1nc2ccc(Cl)cn2c1C(=O)NCc1ccc(N2CCC(C)(O)CC2)cc1` [Compound 237] was run?
The MIC80 was under 1 µM.

`Cc1nc2ccc(F)cn2c1C(=O)NCc1ccc(N2CCC(c3ccc(OC(F)(F)F)cc3)CC2)cc1` [Compound 316] was tested. Which MIC80 did it give?
Its MIC80 is under 1 µM.

Which MIC80 does the source give for `CCc1nc2c(C)cccn2c1C(=O)NCc1ccc(N2CCC(c3ccc(OC(F)(F)F)cc3)CC2)cc1` [Compound 181] here?
Its MIC80 is under 1 µM.

Which MIC80 does the source give for `CCc1nc2cc(Br)ccn2c1C(=O)NCc1ccc(N2CCN(c3ccc(Cl)cc3)CC2)cc1` [Compound 135] here?
The MIC80 was under 1 µM.

How did the MIC80 turn out when `CCc1nc2ccc(C(F)(F)F)cn2c1C(=O)NCc1ccc(N2CCC(c3ccc(Cl)cc3)CC2)cc1` [Compound 226] was run?
Its MIC80 is under 1 µM.

With `CCc1nc2ccc(Cl)cn2c1C(=O)NCc1ccc(NC(=O)NC(C)(C)C)cc1` [Compound 278] as the compound, how does the MIC80 read?
The MIC80 was 1 to 20 µM (≈ 0.428 to 8.56 µg/mL).

With `CCc1nc2c(Br)cccn2c1C(=O)NCc1ccc(N2CCC(c3ccc(C)cc3)CC2)cc1` [Compound 34] as the compound, how does the MIC80 read?
The MIC80 was 1 to 20 µM (≈ 0.531 to 10.6 µg/mL).

Which MIC80 does the source give for `CCc1nc2ccc(C(F)(F)F)cn2c1C(=O)NCc1ccc(N2CCN(c3ccc(OC(F)(F)F)cc3)CC2)cc1` [Compound 188] here?
The MIC80 was under 1 µM.

With `Cc1nc2c(F)cccn2c1C(=O)NCc1ccc(N2CCC(c3ccc(C(F)(F)F)cc3)CC2)cc1` [Compound 310] as the compound, how does the MIC80 read?
The MIC80 was under 1 µM.

Which MIC80 does the source give for `CCc1nc2c(F)cccn2c1C(=O)NCc1ccc(N2CCN(c3ccc(OC)cc3)CC2)cc1` [Compound 32] here?
Its MIC80 is under 1 µM.

For `CCc1nc2ccccn2c1C(=O)NCc1ccc(N2CCN(c3ccc(C(F)(F)F)cc3)CC2)cc1` [Compound 29], which MIC80 is on record?
Its MIC80 is under 1 µM.

For `CCc1nc2c(Br)cccn2c1C(=O)NCc1ccc(N2CCN(c3ccc(OC(F)(F)F)cc3)CC2)cc1` [Compound 94], which MIC80 is on record?
The MIC80 was under 1 µM.

For `CCc1nc2c(Br)cccn2c1C(=O)NCc1ccc(N2CCC(c3ccc(OC(F)(F)F)cc3)CC2)cc1` [Compound 185], which MIC80 is on record?
The MIC80 was 1 to 20 µM (≈ 0.601 to 12 µg/mL).

`CCc1nc2c(OC)cccn2c1C(=O)NCc1ccc(N2CCC(c3ccc(F)cc3)CC2)cc1` [Compound 151] was tested. Which MIC80 did it give?
Its MIC80 is 1 to 20 µM (≈ 0.487 to 9.73 µg/mL).

`CCc1nc2c(Br)cccn2c1C(=O)NCc1ccc(N2CCN(c3ccc(OC)cc3)CC2)cc1` [Compound 95] was tested. Which MIC80 did it give?
The MIC80 was under 1 µM.

For `CCc1nc2c(C(F)(F)F)cccn2c1C(=O)NCc1ccc(N2CCN(c3ccc(OC)cc3)CC2)cc1` [Compound 105], which MIC80 is on record?
The MIC80 was 1 to 20 µM (≈ 0.538 to 10.8 µg/mL).

Which MIC80 does the source give for `CCc1nc2ccc(Br)cn2c1C(=O)NCc1ccc(N2CCN(c3ccc(C)cc3)CC2)cc1` [Compound 101] here?
The MIC80 was under 1 µM.

`CCc1nc2ccc(Br)cn2c1C(=O)NCc1ccc(N2CCC(c3ccc(OC(F)(F)F)cc3)CC2)cc1` [Compound 187] was tested. Which MIC80 did it give?
The MIC80 was under 1 µM.

For `CCc1nc2ccc(F)cn2c1C(=O)NCc1ccc(N2CCN(c3ccc(C)cc3)CC2)cc1` [Compound 75], which MIC80 is on record?
The MIC80 was under 1 µM.

Which MIC80 does the source give for `CCc1nc2ccc(Br)cn2c1C(=O)NCc1ccc(N2CCN(c3ccc(Cl)cc3)CC2)cc1` [Compound 201] here?
Its MIC80 is under 1 µM.

How did the MIC80 turn out when `CCc1nc2c(C(F)(F)F)cccn2c1C(=O)NCc1ccc(N2CCC(c3ccc(OC(F)(F)F)cc3)CC2)cc1` [Compound 154] was run?
The MIC80 was 1 to 20 µM (≈ 0.591 to 11.8 µg/mL).

Which MIC80 does the source give for `CCc1nc2cc(F)ccn2c1C(=O)NCc1ccc(N2CCC(c3ccc(OC)cc3)CC2)cc1` [Compound 14] here?
Its MIC80 is under 1 µM.

Which MIC80 does the source give for `CCc1nc2ccc(Br)cn2c1C(=O)NCc1ccc(N2CCC(c3ccc(Cl)cc3)CC2)cc1` [Compound 159] here?
The MIC80 was under 1 µM.

With `CCc1nc2ccc(Cl)cn2c1C(=O)NCc1ccc(N2CCOCC2)c(F)c1` [Compound 307] as the compound, how does the MIC80 read?
The MIC80 was under 1 µM.

How did the MIC80 turn out when `CCc1nc2cc(C)ccn2c1C(=O)NCc1ccc(N2CCC(c3ccc(C(F)(F)F)cc3)CC2)cc1` [Compound 51] was run?
The MIC80 was under 1 µM.

Which MIC80 does the source give for `CCc1nc2c(Cl)cccn2c1C(=O)NCc1ccc(N2CCN(c3ccc(C(F)(F)F)cc3)CC2)cc1` [Compound 49] here?
The MIC80 was under 1 µM.

`CCc1nc2ccc(OC)cn2c1C(=O)NCc1ccc(N2CCC(c3ccc(F)cc3)CC2)cc1` [Compound 179] was tested. Which MIC80 did it give?
Its MIC80 is under 1 µM.

For `CCc1nc2cc(Cl)ccn2c1C(=O)NCc1ccc(N2CC[C@H](Oc3ccc(Cl)cc3)C2)cc1` [Compound 343], which MIC80 is on record?
The MIC80 was under 1 µM.

`CCc1nc2cc(Cl)ccn2c1C(=O)NCc1ccc(OCC23CC4CC(CC(C4)C2)C3)cc1` [Compound 320] was tested. Which MIC80 did it give?
The MIC80 was under 1 µM.

Which MIC80 does the source give for `CCc1nc2cc(F)ccn2c1C(=O)NCc1ccc(N2CCN(c3ccc(F)cc3)CC2)cc1` [Compound 82] here?
The MIC80 was under 1 µM.

`CCc1nc2c(Cl)cccn2c1C(=O)NCc1ccc(N2CCN(c3ccc(OC)cc3)CC2)cc1` [Compound 50] was tested. Which MIC80 did it give?
Its MIC80 is under 1 µM.

How did the MIC80 turn out when `Cc1nc2cc(F)ccn2c1C(=O)NCc1ccc(N2CCC(c3ccc(C(F)(F)F)cc3)CC2)cc1` [Compound 349] was run?
The MIC80 was under 1 µM.

`CCc1nc2ccc(Cl)cn2c1C(=O)NCc1ccc(N2CCC(C(=O)OCCN3CCOCC3)CC2)cc1` [Compound 336] was tested. Which MIC80 did it give?
The MIC80 was under 1 µM.

Reference: patent US20160185774A1, “Anti-Infective Compounds” (priority 2013, published 2016)
